Among the data in US20100075965A1, “PI3 KINASE INHIBITORS AND METHODS OF THEIR USE” (Novartis AG, priority 2006, published 2010) are EC50 and IC50 values, retold here.

Test [1] concerns pSer473-Akt in A2780 cells. Description: pSer473 Akt assay to monitor PI3K pathway in A2780 cells (MSD). It is filed as cell-based. The following applies: Homo sapiens, A2780 cells. The method, then:
In this method, an assay for measuring the PI3K-mediated pSer^473-Akt status after treatment with representative inhibitor compounds of the preferred embodiments is described.
A2780 cells were cultured in DMEM supplemented with 10% FBS, L-glutamine, sodium pyruvate, and antibiotics. Cells were plated in the same medium at a density of 15,000 cells per well into 96 well tissue culture plates, with outside wells vacant, and allowed to adhere overnight.
Test compounds supplied in DMSO were diluted further into DMSO at 500 times the desired final concentrations before dilution into culture media to 2 times the final concentrations. Equal volumes of 2× compounds in media were added to the cells in 96 well plates and incubated at 37° C. for one hour. The media and compounds were then removed, the plates chilled and cells lysed in a lysis buffer (150 mM NaCl, 20 mM Tris pH 7.5, 1 mM EDTA, 1 mM EGTA, 1% Triton X-100) supplemented with phosphatase and protease inhibitors. After thorough mixing, lysates were transferred to both pSer473Akt and total Akt assay plates from Meso Scale Discovery (MSD), and incubated overnight with shaking at 4° C. The plates were washed with 1×MSD wash buffer and the captured analytes detected with secondary antibodies. After incubation with the secondary antibody at room temperature for 1-2 hours, the plates were washed again and 1.5× concentration of Read Buffer T (MSD) was added to the wells.
The assays were read on a SECTOR Imager 6000 instrument (Meso Scale Discovery). Ratios of the signal from pSer473Akt and total Akt assays were used to correct for any variability and the percent inhibition of pSer473Akt from the total signal seen in cells treated with compound versus DMSO alone was calculated and used to determine EC50 values for each compound as shown in Tables 1 and 2 in the column labeled “A2780 pAKT473 EC50”.

For test [2], the system named is A2780 cells. The experiment in a line: Viability assay in A2780 (Cell Titer Glo). In kind it is cell-based, human. The settings on record: Homo sapiens, A2780 cells, read-out: A2780 Cell prolif. EC50. A digest of the protocol:
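EC50 values come from Cell Titer Glo luminescence after 72 hrs of compound exposure at 37° C, run in duplicate. A2780 cells were plated at 1,000 per well in DMEM with 10% FBS and dosed with 3-fold serial dilutions.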

For test [3], the target named is PI3 K Alpha (Homo sapiens, UniProt P42336). Description: PI3 kinase phosphorylation assays (homogenous solution phase, one step solid phase, ATP depletion/KinaseGlo). In kind it is biochemical.
[4] abbreviates: 1 h, one hour incubation, read-out: A2780 pAKT473 EC50.

The structures appear in SMILES notation. Read-outs that look alike come from different tables or passages of the source. Where only a bound is given, the exact number is not on record here.

PI3 K Alpha, sequence (P42336 whole entry): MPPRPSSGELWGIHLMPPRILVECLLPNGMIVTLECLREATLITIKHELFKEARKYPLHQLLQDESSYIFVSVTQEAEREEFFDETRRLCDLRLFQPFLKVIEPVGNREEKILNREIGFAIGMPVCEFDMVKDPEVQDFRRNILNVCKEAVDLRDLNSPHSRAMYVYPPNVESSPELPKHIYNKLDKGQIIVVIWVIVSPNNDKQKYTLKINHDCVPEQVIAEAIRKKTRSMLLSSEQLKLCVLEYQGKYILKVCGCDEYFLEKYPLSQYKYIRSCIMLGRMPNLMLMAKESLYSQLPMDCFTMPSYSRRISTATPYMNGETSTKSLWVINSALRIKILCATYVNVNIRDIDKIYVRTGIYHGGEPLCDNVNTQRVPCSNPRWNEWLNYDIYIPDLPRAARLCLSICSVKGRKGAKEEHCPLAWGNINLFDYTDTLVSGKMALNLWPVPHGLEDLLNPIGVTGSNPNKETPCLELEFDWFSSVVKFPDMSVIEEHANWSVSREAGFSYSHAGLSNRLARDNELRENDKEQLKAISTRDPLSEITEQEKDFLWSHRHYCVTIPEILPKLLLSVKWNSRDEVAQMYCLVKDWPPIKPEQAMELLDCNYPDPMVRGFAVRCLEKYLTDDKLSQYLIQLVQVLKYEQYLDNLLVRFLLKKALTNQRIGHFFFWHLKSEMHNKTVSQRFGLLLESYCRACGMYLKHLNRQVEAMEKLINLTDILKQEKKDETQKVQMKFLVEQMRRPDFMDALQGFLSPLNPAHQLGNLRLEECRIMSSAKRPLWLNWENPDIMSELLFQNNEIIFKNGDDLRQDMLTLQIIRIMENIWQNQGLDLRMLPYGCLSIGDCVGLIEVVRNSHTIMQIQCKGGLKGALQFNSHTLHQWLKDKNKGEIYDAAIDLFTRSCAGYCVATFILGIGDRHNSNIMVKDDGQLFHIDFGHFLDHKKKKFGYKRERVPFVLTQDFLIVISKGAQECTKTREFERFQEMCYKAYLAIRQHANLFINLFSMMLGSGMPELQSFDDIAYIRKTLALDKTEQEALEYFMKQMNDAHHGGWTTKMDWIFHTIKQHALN
PI3 K Alpha, sequence (P27986 whole entry partner): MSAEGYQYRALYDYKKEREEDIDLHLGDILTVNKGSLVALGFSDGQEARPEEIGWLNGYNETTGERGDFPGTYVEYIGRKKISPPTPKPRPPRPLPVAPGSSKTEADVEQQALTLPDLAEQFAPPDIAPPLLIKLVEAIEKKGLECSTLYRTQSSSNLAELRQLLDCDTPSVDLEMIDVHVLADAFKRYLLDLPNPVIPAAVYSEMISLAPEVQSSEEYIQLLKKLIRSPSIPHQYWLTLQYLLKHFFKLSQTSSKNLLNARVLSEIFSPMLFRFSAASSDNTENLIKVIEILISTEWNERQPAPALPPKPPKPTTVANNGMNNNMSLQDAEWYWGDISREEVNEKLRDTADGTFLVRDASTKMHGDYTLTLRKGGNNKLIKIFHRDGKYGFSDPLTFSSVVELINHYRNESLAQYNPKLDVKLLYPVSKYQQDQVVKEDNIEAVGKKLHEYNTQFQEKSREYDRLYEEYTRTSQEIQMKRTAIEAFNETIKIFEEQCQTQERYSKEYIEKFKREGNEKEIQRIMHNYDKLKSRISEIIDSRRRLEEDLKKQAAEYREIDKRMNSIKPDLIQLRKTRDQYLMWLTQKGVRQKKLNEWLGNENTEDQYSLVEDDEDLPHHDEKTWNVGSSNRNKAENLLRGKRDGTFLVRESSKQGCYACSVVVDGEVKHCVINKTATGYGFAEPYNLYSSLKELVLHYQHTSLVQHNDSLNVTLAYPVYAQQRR

The EC50 is the concentration that produces a half-maximal response. In general, IC50 refers to the point on the concentration scale where inhibition reaches its midpoint. In the case of `NCC(=O)Nc1cn2cc(-c3cnc(N)c(C(F)(F)F)c3)ccc2n1` [Example 215, 2-amino-N-(6-(6-amino-5-(trifluoromethyl)pyridin-3-yl)imidazo[1,2-a]pyridin-2-yl)acetamide], the EC50 in test [1] (read-out: A2780 pAKT 473 EC50) and in test [2] was under 10 µM throughout. Moreover, the IC50 in test [3] (read-out: PI3K Alpha IC50) was under 1 µM.
On to `COc1cc(-c2ccc3nc(NC(C)=O)cn3c2)c(C)nc1N` [Example 33, N-(6-(6-amino-5-methoxy-2-methylpyridin-3-yl)imidazo[1,2-a]pyridin-2-yl)acetamide], for which the EC50 in test [1] (read-out: A2780 pAKT 473 EC50) is under 25 µM; in test [2], under 10 µM. Also, the IC50 in test [3] (read-out: PI3K Alpha IC50) is over 25 µM.
Consider `COC(=O)Nc1cn2cc(-c3cnc(N)c(C(F)(F)F)c3)ccc2n1` [Example 19, [6-(6-Amino-5-trifluoromethyl-pyridin-3-yl)-imidazo[1,2-a]pyridin-2-yl]-carbamic acid methyl ester], for which the EC50 is under 1 µM in test [1] (read-out: A2780 pAKT 473 EC50) and under 10 µM in test [2]. Further, the IC50 in test [3] (read-out: PI3K Alpha IC50) was under 1 µM.
With `Nc1ncc(-c2ccc3nc(NC(=O)Cc4cccc5ccccc45)cn3c2)cc1C(F)(F)F` [Example 110, N-(6-(6-amino-5-(trifluoromethyl)pyridin-3-yl)imidazo[1,2-a]pyridin-2-yl)-2-(naphthalen-1-yl)acetamide], the EC50 in test [1] (read-out: A2780 pAKT 473 EC50) and in test [2] was under 1 µM in each case. Besides, the IC50 in test [3] (read-out: PI3K Alpha IC50) is under 1 µM.
With `CC(=O)Nc1nc2ccc(-c3cnc(N)c(C(F)(F)F)c3)cn2c1C#Cc1ccccc1` [Example 23, N-[6-(6-Amino-5-trifluoromethyl-pyridin-3-yl)-3-phenylethynyl-imidazo[1,2-a]pyridin-2-yl]-acetamide], the EC50 is under 1 µM in test [1] (read-out: A2780 pAKT 473 EC50) and under 10 µM in test [2]. The IC50 in test [3] (read-out: PI3K Alpha IC50) was under 1 µM.
With `CC(=O)Nc1cn2nc(-c3cnc(N)c(C(=O)O)c3)ccc2n1` [Example 136, 5-(2-acetamido-imidazo[1,2-b]pyridazin-6-yl)-2-aminonicotinic acid], the EC50 in test [1] (read-out: A2780 pAKT 473 EC50) and in test [2] was under 25 µM in each case. The concentration for half-maximal inhibition (IC50) in test [3] (read-out: PI3K Alpha IC50) was under 1 µM.
In the case of `CC(C)(C)OC(=O)N1CC[C@@H](OCC(=O)Nc2cn3nc(-c4cnc(N)c(C(F)(F)F)c4)ccc3n2)C1` [Example 102, (R)-tert-butyl 3-(2-(6-(6-amino-5-(trifluoromethyl)pyridin-3-yl)imidazo[1,2-b]pyridazin-2-ylamino)-2-oxoethoxy) pyrrolidine-1-carboxylate], the EC50 in test [1] (read-out: A2780 pAKT 473 EC50) and in test [2] was under 1 µM throughout. Moreover, the IC50 in test [3] (read-out: PI3K Alpha IC50) was under 1 µM.
For `CC(=O)Nc1cn2nc(-c3cnc(N)c(-c4ccccc4)c3)ccc2n1` [Example 84, N-(6-(6-amino-5-phenylpyridin-3-yl)imidazo[1,2-b]pyridazin-2-yl)acetamide], the EC50 in test [1] (read-out: A2780 pAKT 473 EC50) and in test [2] was under 1 µM in each case. In addition, the IC50 in test [3] (read-out: PI3K Alpha IC50) was under 1 µM.
Consider `CC(=O)Nc1cn2cc(-c3cnc(N)c(OC4CCC4)n3)ccc2n1` [Example 64, N-(6-(5-amino-6-cyclobutoxy-pyrazin-2-yl)imidazo[1,2-a]pyridin-2-yl)acetamide], for which the EC50 in test [1] (read-out: A2780 pAKT 473 EC50) and in test [2] was under 1 µM throughout. Also, in test [3] (read-out: PI3K Alpha IC50), the half-maximal inhibitory concentration (IC50) is under 1 µM.
On to `CC(=O)Nc1cn2cc(-c3cnc(N)c(-c4ccc(OC(F)(F)F)cc4)c3)ccc2n1` [Example 97, N-(6-(6-amino-5-(4-(trifluoromethoxy)phenyl)pyridin-3-yl)imidazo[1,2-a]pyridin-2-yl)acetamide], for which the EC50 in test [1] (read-out: A2780 pAKT 473 EC50) was under 10 µM; in test [2], under 1 µM. Moreover, the IC50 in test [3] (read-out: PI3K Alpha IC50) was under 1 µM.
Turning to `CNCC(=O)Nc1cn2cc(-c3cnc(N)c(OCCOC)n3)ccc2n1` [Example 122, N-(6-(5-amino-6-(2-methoxyethoxy)pyrazin-2-yl)imidazo[1,2-a]pyridin-2-yl)-2-(methylamino) acetamide], the 50% effective concentration (EC50) was under 1 µM in test [1] (read-out: A2780 pAKT 473 EC50) and under 10 µM in test [2]. For the same molecule, the 50% inhibitory concentration (IC50) in test [3] (read-out: PI3K Alpha IC50) is under 1 µM.
Turning to `CC(=O)Nc1nc2ccc(-c3cnc(N)c(C(F)(F)F)c3)cn2c1Cl` [Example 7, N-[6-(6-Amino-5-trifluoromethyl-pyridin-3-yl)-3-chloro-imidazo[1,2-a]pyridin-2-yl]-acetamide], the concentration for a half-maximal effect (EC50) in test [1] (read-out: A2780 pAKT 473 EC50) and in test [2] was under 10 µM each time. For the same molecule, in test [3] (read-out: PI3K Alpha IC50), the IC50 was under 1 µM.
As for `Nc1ncc(-c2ccc3nc(NC(=O)CCCN4CCOCC4)sc3c2)cn1` [Example 2-11, N-[6-(2-Amino-pyrimidin-5-yl)-benzothiazol-2-yl]-4-morpholin-4-yl-butyramide], the 50% effective concentration (EC50) in test [1] (setting [4]) is under 1 µM; in test [2] (72 hrs) it was under 10 µM. Further, the IC50 in test [3] (ATP depletion assay, read-out: PI3 K Alpha IC50) was under 1 µM.
Regarding `CC(=O)Nc1cn2nc(-c3cnc(N)c(-c4ccc(C(F)(F)F)cc4)c3)ccc2n1` [Example 107, N-(6-(6-amino-5-(4-(trifluoromethyl)phenyl)pyridin-3-yl)imidazo[1,2-b]pyridazin-2-yl)acetamide], the EC50 in test [1] (read-out: A2780 pAKT 473 EC50) and in test [2] was under 1 µM in each case. In test [3] (read-out: PI3K Alpha IC50), the half-maximal inhibitory concentration (IC50) is under 1 µM.
As for `CC(=O)Nc1cn2cc(-c3cnc(N)c(C#N)c3)ccc2n1` [Example 235, N-(6-(6-amino-5-cyanopyridin-3-yl)imidazo[1,2-a]pyridin-2-yl)acetamide], the EC50 in test [1] (read-out: A2780 pAKT 473 EC50) and in test [2] was under 10 µM in each case. For the same molecule, the IC50 in test [3] (read-out: PI3K Alpha IC50) is under 1 µM.
In the case of `Cc1cc(C(=O)Nc2cn3cc(-c4cnc(N)c(C(F)(F)F)c4)ccc3n2)no1` [Example 94, N-(6-(6-amino-5-(trifluoromethyl)pyridin-3-yl)imidazo[1,2-a]pyridin-2-yl)-5-methylisoxazole-3-carboxamide], the EC50 in test [1] (read-out: A2780 pAKT 473 EC50) and in test [2] was under 1 µM throughout. Also, the IC50 in test [3] (read-out: PI3K Alpha IC50) is under 1 µM.
In the case of `CC(=O)Nc1cn2cc(-c3cnc(N)c(Oc4ccc(F)cc4)n3)ccc2n1` [Example 63, N-(6-(5-amino-6-(4-fluorophenoxy)pyrazin-2-yl)imidazo[1,2-a]pyridin-2-yl)acetamide], the EC50 in test [1] (read-out: A2780 pAKT 473 EC50) and in test [2] was under 1 µM throughout. In test [3] (read-out: PI3K Alpha IC50), the IC50 was under 1 µM.
`Nc1ncc(-c2ccc3nc(NC(=O)CCC4CCCCN4)cn3n2)cc1C(F)(F)F` (centres unmarked) [Example 59, N-(6-(6-amino-5-(trifluoromethyl)pyridin-3-yl)imidazo[1,2-b]pyridazin-2-yl)-3-(piperidin-2-yl)propanamide]: the EC50 in test [1] (read-out: A2780 pAKT 473 EC50) and in test [2] was under 1 µM in each case. Further, the IC50 in test [3] (read-out: PI3K Alpha IC50) is under 1 µM.
For `Nc1ncc(-c2ccc3nc(NC(=O)CCCN4CCCCC4)sc3c2)cc1C(F)(F)F` [Example 2-21, N-[6-(6-Amino-5-trifluoromethyl-pyridin-3-yl)-benzothiazol-2-yl]-4-piperidin-1-yl-butyramide], the EC50 in test [1] (setting [4]) was under 1 µM; in test [2] (72 hrs) it was under 10 µM.
Consider `CC(=O)Nc1nc2ccc(-c3cnc(N)nc3)cc2s1` [Example 2-1, N-[6-(2-Amino-pyrimidin-5-yl)-benzothiazol-2-yl]-acetamide], for which the EC50 in test [1] (setting [4]) was under 1 µM; in test [2] (72 hrs) it was under 10 µM.
In the same order, the values of `CC(=O)Nc1nc2ccc(-c3cnc(N)c(C(F)(F)F)c3)cc2s1` [Example 2-8, N-[6-(6-Amino-5-trifluoromethyl-pyridin-3-yl)-benzothiazol-2-yl]-acetamide] are under 1 µM and under 1 µM.
Taken in the same sequence, the figures for `Nc1ncc(-c2ccc3nc(NC(=O)CCCN4CCOCC4)sc3c2)cc1C(F)(F)F` [Example 2-12, N-[6-(6-Amino-5-trifluoromethyl-pyridin-3-yl)-benzothiazol-2-yl]-4-morpholin-4-yl-butyramide] were under 1 µM and under 10 µM.
As to `CC(=O)Nc1nc2ccc(-c3cnc(N)c(C)c3)cc2s1` [Example 2-4, N-[6-(6-Amino-5-methyl-pyridin-3-yl)-benzothiazol-2-yl]-acetamide], the EC50 is under 1 µM in test [1] (setting [4]) and under 10 µM in test [2] (72 hrs).
As to `CC(=O)Nc1nc2ccc(-c3ccc(N)nc3)cc2s1` [Example 2-2, N-[6-(6-Amino-pyridin-3-yl)-benzothiazol-2-yl]-acetamide], the EC50 in test [1] (setting [4]) is under 1 µM; in test [2] (72 hrs), under 10 µM.
Take `Nc1ncc(-c2ccc3nc(NC(=O)[C@@H]4CCCCN4)cn3c2)cc1C(F)(F)F` [Example 283, (S)-N-(6-(6-amino-5-(trifluoromethyl)pyridin-3-yl)imidazo[1,2-a]pyridin-2-yl)piperidine-2-carboxamide]: the EC50 is under 1 µM in test [1] (read-out: A2780 pAKT 473 EC50) and under 10 µM in test [2].
